Measurements published in patent US9604932B2 (priority 2013, dated 2017).

What was measured:
[1] = test system: contrast-induced nephropathy (CIN); test: Rat model of contrast-induced nephropathy; type: in vivo, Sprague-Dawley rats; conditions: protocol only; 10, 20, 40 mg/kg/day BID IV
Method: In order to test the efficacy of R-107 in contrast-induced nephropathy (CIN), a single-blinded study of CIN is carried out in Sprague-Dawley rats (n=10 per group) subjected to dehydration, prostaglandin synthetase inhibition, and an IV challenge of contrast media (CM). A sham injury group is compared to treatment of CM-challenged healthy rats with R-107 (10, 20, 40 mg/kg/day in 5% dextrose, BID IV), N-acetylcysteine (NAC, 100 mg/kg/day in 5% dextrose, BID), or vehicle control (hydroxypropyl cyclodextrin, HPCD) initiated 10 min before CM administration and continued for 48 hours. Rats are evaluated at 48 hours for renal function (blood urea nitrogen to creatinine ratio, BUN:creatinine) and parameters reflecting renal injury, including protein release into the blood (NGAL; kidney injury molecule-1, KIM-1), pro-inflammatory transcription factor expression (cytoplasmic IkBa degradation, nuclear p65 translocation), histologic damage (H&E), mitochondrial swelling (electron microscopy), and nuclear damage and DNA repair (PARP activation and nitrosative stress as noted by poly(ADP-ribose) and 3-nitrotyrosine (3-NT) tissue immunoreactivity). […]

[2] = test system: retinal ischemia-reperfusion injury; test: Murine model of retinal ischemia-reperfusion injury; type: in vivo, C57BL/6 mice; conditions: protocol only; 30 mg/kg/day IP BID
Method: In this study, the efficacy of R-107 in subacute murine model of retinal ischemia-reperfusion injury is tested, using male C57BL/6 mice (n=10 per group). Briefly, the anterior chamber of the right eye is cannulated with a 30 gauge needle attached to a line infusing sterile saline. The intraocular pressure (IOP) is raised to 110 mmHg by elevating the saline reservoir. The left eye undergoes sham surgery, in which the needle is inserted into the anterior chamber without elevating IOP. R-107 is injected (30 mg/kg/day IP BID) commencing directly before reperfusion. 2 vehicle controls (normal saline and HPCD) is compared to drug therapy. Treatments are repeated twice daily thereafter until sacrifice. The outcome of these pharmacologic studies is quantitatively assessed by using terminal deoxynucleotidyl transferase dUTP nick end labeling (TUNEL) to measure retinal cell death (after 3 days), confocal imaging to quantify survival of ganglion cell layer neurons (after 7 days), and electroretinogram recordings to measure retinal neuronal function (after 21 days).

[3] = test system: peripheral hypertension (HTN); test: Minipig model of peripheral hypertension; type: in vivo, minipigs; conditions: protocol only; enterically-coated oral capsule
Method: In order to test the efficacy of R-107 in peripheral hypertension (HTN), a series of 3 hemodynamic studies is carried out in conscious, instrumented, ambulatory, and telemetered minipigs (n=5) with HTN secondary to an endovascular-created, unilateral, renovascular stenosis. Minipigs are treated with R-107 administered as an enterically-coated oral capsule.
In Series A, the pharmacokinetic profile and hemodynamic effect of a single administration of R-107 (3, 10, 20, 30 mg/kg) is correlated with a one-week washout period between successive dose levels. Animals are monitored for 24 hours to collect continuous hemodynamic data and intermittent plasma concentrations of R-107 and its metabolites (0, 0.25, 0.5, 0.75, 1, 2, 4, 6, 8, 12, 16, 20, and 24 hours). In Series B, the most promising 2 doses of R-107 from Series A are evaluated by carrying out a repeat-dose study of R-107 administered every 6 hours (q6h) for a period of 3 days. The hemodynamic effects of R-107 are correlated with plasma peak and trough concentrations of R-107 and its metabolites obtained q6h. In Series C, the emergence of tachyphylaxis to R-107 in a 2 week repeat-dose study (q6h) is evaluated utilizing the optimal dose determined in Series B, wherein hemodynamics are correlated with plasma pharmacokinetic determinations as in Series B.

CC(=O)ON1C(C)(C)CC(CO[N+](=O)[O-])C1(C)C (stereo not drawn) [R-107, 2,2,5,5-tetramethyl-3-(nitrooxymethyl)pyrrolidin-1-yl acetate]
Effective: Efficacy in rat model of contrast-induced nephropathy [1] | Efficacy in murine model of retinal ischemia-reperfusion injury [2] | Efficacy in minipig model of peripheral hypertension [3]
